Results as given in patent US20220228054A1, “FLUORESCENT NAPHTHALIMIDE POLYMERS AND SOLUTIONS THEREOF FOR SCALE CONTROL IN AQUEOUS SYSTEMS” (NOURYON CHEMICALS INTERNATIONAL B.V., priority 2019, published 2022).

Columns and labels:
Type in all cases: physicochemical
[1] = Solubility in acrylic acid; details: 1.39 g in 10.5 g of acrylic acid
Method: The solubility of the monomer reaction product of Monomer Example 2 in acrylic acid was measured in the following manner. 10 g of acrylic acid was taken and the dried monomer reaction product of Monomer Example 2 was added in 0.2 g aliquots. The Monomer Example 2 reaction product started to become insoluble after 1.39 g was added. Next, 0.5 g of acrylic acid was added to form a clear solution. The final solution had 1.39 g of reaction product of Example 2 in 10.5 g of acrylic acid. The weight of reaction product of Example 2 was 11.7% of the total solution weight.

[2] = LC/FLD and GC/MS fluorescence of monomer species; details: for excitation maximum: at the emission maximum; for emission maximum: zero order excitation
Method: The sample of this example was initially analyzed by LC/MS to identify the retention times of target peaks. The same sample was then analyzed using similar, but weaker LC conditions by LC/FLD. The first step was to collect emission spectra with zero order excitation, this allows determining the emission maximum, which was 410 nm for the N-allyl-4-propoxy-1,8-naphthalimide and 450 nm for the N-allyl-4,5-dipropoxy-1,8-naphthalimide species.
The next step was to collect excitation spectra at the emission maximum for each compound. This allows determining the individual excitation maximum, which was 375 nm and 395 nm for the N-allyl-4-propoxy-1,8-naphthalimide and the N-allyl-4,5-dipropoxy-1,8-naphthalimide species respectively. The final step is to collect a chromatogram at the individual excitation and emission maxima. The latter two steps are each done with time programming the wavelengths, so each only require a single chromatogram.
Then the sample was analyzed by GC/MS to estimate the actual concentrations of the two components of interest. The ratio of the area percent by fluorescence and mass spec is the estimated relative fluorescence intensity. […] This assumes that the GC/MS area percent is the actual weight percent, which should be a close approximation.

Solubility in water = experiment: Solubility in water
Method: The procedure of Example 4 in RU2640339 was repeated. An initial charge of 84 g of deionized water and 1 g of ammonium persulfate was placed in a 250 ml glass reactor with inlet ports for an agitator, water cooled condenser, thermocouple. 15 g of acrylic acid (0.208 moles, 99.73 mole percent of polymer) was weighed into a beaker and then 0.15 g of N-allyl-4-methoxy-1,8-naphthalimide (Monomer Example 2, formula weight 267, 0.00056 moles, […] of polymer) was added to the beaker and mixed until the powdered fluorescent monomer dissolved. This solution was then added to the reactor, with stirring. The reaction mixture was very cloudy, indicating insolubility of the N-allyl-4-methoxy-1,8-naphthalimide in the reaction mixture. The reactor contents were slowly heated to 85° C. When the temperature reached about 80° C., a strong exotherm was observed. The reaction mixture started to thicken and within minutes, a sticky, intractable mass was formed and started to rise up the stir shaft. An attempt was made to remove some of the reaction product from the reactor and try and dissolve it in water.

Row | excitation maximum [2] | emission maximum [2] | SMILES | other results
1 |  |  | C=CCN1C(=O)c2cccc3c(OC)ccc(c23)C1=O [Monomer Example 2, N-allyl-4-methoxy-1,8-naphthalimide] | solubility in acrylic acid (weight of reaction product in clear solution) [1]: 11.7 % of the total solution weight
2 | 375 nm | 410 nm | C=CCN1C(=O)c2cccc3c(OCCC)ccc(c23)C1=O [Monomer Example 3, N-allyl-4-propoxy-1,8-naphthalimide] | 
3 |  |  | C=CCOc1ccc2c3c(cccc13)C(=O)N(CCC)C2=O [Monomer Example 4, N-propyl-4-allyloxy-1,8-naphthalimide] | solubility in water (in words) (Solubility in water): insolubility
4 |  |  | C=CCN1C(=O)c2cccc3c(OCCOCCOCCOC)ccc(c23)C1=O [Monomer Example 5, N-allyl-4-(methoxy, triethylene glycol) 1,8-naphthalimide] | solubility in water (Solubility in water; 25° C., pH 7): less than 0.1 grams per 100 mis of water
5 | 395 nm | 450 nm | C=CCN1C(=O)c2ccc(OCCC)c3c(OCCC)ccc(c23)C1=O [N-allyl-4,5-dipropoxy-1,8-naphthalimide] | 
